Tests used:
[1] = molecular target: T1, ATP-dependent translocase ABCB1 (Homo sapiens, UniProt P08183); test: TP_TRANSPORTER: cell accumulation in KB-3-1 and KB-V1 cells; type: functional, cell-based; settings: kb-3-1;kb-v1
[2] = molecular target: T2, ATP-dependent translocase ABCB1 (Mus musculus, UniProt P21447); test: TP_TRANSPORTER: transepithelial transport (basal to apical) in mdr1a-expressing LLC-PK1 cell; type: functional, cell-based; settings: pig
[3] = molecular target: T1, ATP-dependent translocase ABCB1; test: TP_TRANSPORTER: transepithelial transport (basal to apical) in MDR1-expressing LLC-PK1 cells; type: functional, cell-based; settings: pig
[4] = molecular target: T2, ATP-dependent translocase ABCB1; test: TP_TRANSPORTER: increase in brain concentration in mdr1a(-/-) mouse; type: functional, organism-based; settings: in vivo
[5] = molecular target: T2, ATP-dependent translocase ABCB1; test: TP_TRANSPORTER: increase in plasma concentration in mdr1a(-/-) mouse; type: functional, organism-based; settings: in vivo
[6] = molecular target: T2, ATP-dependent translocase ABCB1; test: TP_TRANSPORTER: no change in plasma concentration in mdr1a(-/-) mouse; type: functional, organism-based; settings: in vivo
[7] = molecular target: T2, ATP-dependent translocase ABCB1; test: TP_TRANSPORTER: no change in brain concentration in mdr1a(-/-) mouse; type: functional, organism-based; settings: in vivo

T2 sequence (P21447 whole entry): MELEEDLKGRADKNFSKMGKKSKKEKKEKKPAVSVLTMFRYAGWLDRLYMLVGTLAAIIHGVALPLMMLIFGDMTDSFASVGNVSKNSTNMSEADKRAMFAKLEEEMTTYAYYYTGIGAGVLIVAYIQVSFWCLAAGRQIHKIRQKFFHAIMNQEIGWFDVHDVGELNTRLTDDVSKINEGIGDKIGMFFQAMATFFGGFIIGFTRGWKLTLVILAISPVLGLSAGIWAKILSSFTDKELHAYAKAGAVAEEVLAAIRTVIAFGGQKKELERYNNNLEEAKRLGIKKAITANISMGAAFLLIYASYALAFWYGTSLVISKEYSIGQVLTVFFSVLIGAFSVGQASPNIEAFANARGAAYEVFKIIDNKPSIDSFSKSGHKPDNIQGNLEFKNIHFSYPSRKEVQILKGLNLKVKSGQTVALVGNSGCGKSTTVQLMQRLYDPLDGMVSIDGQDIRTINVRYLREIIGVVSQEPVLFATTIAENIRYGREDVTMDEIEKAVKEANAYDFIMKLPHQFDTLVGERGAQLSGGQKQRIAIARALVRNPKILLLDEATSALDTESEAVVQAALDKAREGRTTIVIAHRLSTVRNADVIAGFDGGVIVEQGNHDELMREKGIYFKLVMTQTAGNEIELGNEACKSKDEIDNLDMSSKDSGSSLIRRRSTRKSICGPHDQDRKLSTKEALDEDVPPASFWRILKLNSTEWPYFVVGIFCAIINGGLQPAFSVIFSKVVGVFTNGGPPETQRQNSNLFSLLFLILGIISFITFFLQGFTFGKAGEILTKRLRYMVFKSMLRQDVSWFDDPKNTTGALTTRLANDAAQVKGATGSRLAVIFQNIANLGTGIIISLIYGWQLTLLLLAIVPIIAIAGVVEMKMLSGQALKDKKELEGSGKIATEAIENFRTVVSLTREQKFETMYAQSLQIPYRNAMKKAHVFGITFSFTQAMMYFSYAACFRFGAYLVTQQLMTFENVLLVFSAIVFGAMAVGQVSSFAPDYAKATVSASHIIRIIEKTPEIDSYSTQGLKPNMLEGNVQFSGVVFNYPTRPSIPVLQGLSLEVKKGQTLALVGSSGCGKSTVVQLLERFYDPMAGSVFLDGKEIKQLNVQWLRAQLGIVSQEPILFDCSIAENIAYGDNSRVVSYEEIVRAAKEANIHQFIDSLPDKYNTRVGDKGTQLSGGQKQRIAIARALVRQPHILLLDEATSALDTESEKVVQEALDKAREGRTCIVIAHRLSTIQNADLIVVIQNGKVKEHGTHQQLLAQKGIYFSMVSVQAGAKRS
T1 sequence (P08183 whole entry): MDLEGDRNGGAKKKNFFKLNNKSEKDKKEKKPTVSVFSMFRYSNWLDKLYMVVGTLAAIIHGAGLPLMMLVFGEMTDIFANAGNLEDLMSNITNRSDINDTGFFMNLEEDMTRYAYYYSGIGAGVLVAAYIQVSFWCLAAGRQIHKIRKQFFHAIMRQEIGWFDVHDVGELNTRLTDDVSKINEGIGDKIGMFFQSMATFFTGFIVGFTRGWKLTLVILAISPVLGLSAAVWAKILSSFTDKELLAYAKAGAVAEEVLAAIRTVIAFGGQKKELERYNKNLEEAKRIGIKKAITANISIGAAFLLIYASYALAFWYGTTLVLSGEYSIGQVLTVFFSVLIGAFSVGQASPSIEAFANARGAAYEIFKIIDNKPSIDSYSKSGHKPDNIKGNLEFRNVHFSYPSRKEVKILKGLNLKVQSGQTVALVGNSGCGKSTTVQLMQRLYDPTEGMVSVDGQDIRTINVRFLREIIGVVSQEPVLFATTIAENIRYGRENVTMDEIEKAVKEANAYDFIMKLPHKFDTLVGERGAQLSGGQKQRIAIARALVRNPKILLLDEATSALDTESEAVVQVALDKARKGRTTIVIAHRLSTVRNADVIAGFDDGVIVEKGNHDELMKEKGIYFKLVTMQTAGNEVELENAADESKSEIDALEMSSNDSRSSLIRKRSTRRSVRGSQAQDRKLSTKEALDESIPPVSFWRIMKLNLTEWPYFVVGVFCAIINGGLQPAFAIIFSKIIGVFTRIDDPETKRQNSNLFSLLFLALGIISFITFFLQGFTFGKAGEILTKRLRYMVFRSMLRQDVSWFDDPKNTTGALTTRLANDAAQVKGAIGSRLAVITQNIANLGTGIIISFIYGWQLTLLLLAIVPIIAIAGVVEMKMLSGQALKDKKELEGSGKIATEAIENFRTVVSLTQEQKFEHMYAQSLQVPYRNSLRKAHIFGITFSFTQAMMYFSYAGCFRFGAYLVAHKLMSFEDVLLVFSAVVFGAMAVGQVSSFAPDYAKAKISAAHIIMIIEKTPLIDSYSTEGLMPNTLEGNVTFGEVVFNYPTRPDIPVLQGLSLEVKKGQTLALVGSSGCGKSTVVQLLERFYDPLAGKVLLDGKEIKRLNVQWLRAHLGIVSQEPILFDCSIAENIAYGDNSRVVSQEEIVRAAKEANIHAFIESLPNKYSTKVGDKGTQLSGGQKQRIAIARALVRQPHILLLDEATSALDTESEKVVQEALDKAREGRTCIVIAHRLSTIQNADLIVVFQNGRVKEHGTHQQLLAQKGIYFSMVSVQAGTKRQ

Row | SMILES | Activity [1] | Activity [2] | Activity [3] | Activity [4] | Activity [5] | Activity [6] | Activity [7]
1 | Cc1nc(N)ccc1CNC(=O)Cn1c(C)cnc(NCCc2ccccc2)c1=O.Cl.Cl.O | substrate [+] | substrate [+] | substrate [+] |  |  |  | 
2 | C[C@H](N)c1ccc(N2CCC(c3nc(-c4cccc(C(F)(F)F)c4)c(-c4ccncc4)n3C)CC2)cc1.[O-][Cl+3]([O-])([O-])O | substrate [+] | substrate [+] | substrate [+] | substrate [+] | substrate [+] |  | 
3 | CC(C)(C)NC(=O)[C@@H]1CN(Cc2cc3ccccc3o2)CCN1[C@@H](Cc1ccccc1)[C@@H](O)C[C@@H](Cc1ccccc1)C(=O)NC1c2ccccc2C[C@H]1O (some centres undefined) | substrate [+] | substrate [+] |  | substrate [+] | substrate [+] |  | 
4 | Cc1cccc(NC(=O)NC2N=C(c3ccccc3)c3ccccc3N(C)C2=O)c1 (centres undefined) | substrate [+] | substrate [+] | substrate [+] | substrate [+] | substrate [+] |  | 
5 | C[C@@H](O)[C@H]1C(=O)N2C(C(=O)[O-])=C(S[C@@H]3CN[C@H](C(=O)Nc4cccc(C(=O)O)c4)C3)[C@H](C)[C@H]12.O.[Na+] | is not a substrate [-] | is not a substrate [-] | is not a substrate [-] |  |  |  | 
6 | CC(C)(C)NC(=O)[C@@H]1CN(Cc2cccnc2)CCN1C[C@@H](O)C[C@@H](Cc1ccccc1)C(=O)N[C@H]1c2ccccc2C[C@H]1O.O | substrate [+] | substrate [+] |  | substrate [+] | substrate [+] |  | 
7 | CN1C(=O)C(NC(=O)c2cc3ccccc3[nH]2)N=C(c2ccccc2)c2ccccc21 (racemic) | is not a substrate [-] | is not a substrate [-] | is not a substrate [-] |  |  |  | 
8 | CC[C@H](C)C[C@H](C)CCCCCCCCC(=O)N[C@H]1C[C@@H](O)[C@@H](NCCN)NC(=O)[C@@H]2[C@@H](O)CCN2C(=O)[C@H]([C@H](O)CCN)NC(=O)[C@H]([C@H](O)[C@@H](O)c2ccc(O)cc2)NC(=O)[C@@H]2C[C@@H](O)CN2C(=O)[C@H]([C@@H](C)O)NC1=O [CASPOFUNGIN] | is not a substrate [-] | is not a substrate [-] | is not a substrate [-] |  |  |  | 
9 | CN1C(=O)CN=C(c2ccccc2)c2cc(Cl)ccc21 [DIAZEPAM] | is not a substrate [-] | is not a substrate [-] | is not a substrate [-] |  |  | is not a substrate [-] | is not a substrate [-]
10 | N#Cc1ccc(Cn2cncc2CN2CCN(c3cccc(Cl)c3)C(=O)C2)cc1 [L-778123 FREE BASE] | substrate [+] | substrate [+] | substrate [+] |  |  |  | 
11 | CC(=O)[C@H]1CC[C@H]2[C@@H]3CCC4=CC(=O)CC[C@]4(C)[C@H]3CC[C@]12C [PROGESTERONE] | is not a substrate [-] | is not a substrate [-] | substrate [+] |  |  |  | 
12 | CC[C@]1(O)C[C@@H]2CN(CCc3c([nH]c4ccccc34)[C@@](C(=O)OC)(c3cc4c(cc3OC)N(C)[C@H]3[C@@](O)(C(=O)OC)[C@H](OC(C)=O)[C@]5(CC)C=CCN6CC[C@]43[C@@H]65)C2)C1 [VINBLASTINE] | substrate [+] |  |  | substrate [+] | substrate [+] |  | 

Source: ChEMBL document CHEMBL2073937, “In vitro substrate identification studies for p-glycoprotein-mediated transport: species difference and predictability of in vivo results” (J Pharmacol Exp Ther, 2001)
